The source of these data is paper PMC10606064, “2-Aminothiazole-Flavonoid Hybrid Derivatives Binding to Tau Protein and Responsible for Antitumor Activity in Glioblastoma” (International Journal of Molecular Sciences, 2023).

In one assay the test system is U251 glioblastoma cells. Kind of assay: MTT cell viability assay, U251. The assay is classed as cell-based. As to conditions: Homo sapiens, U-251, U251, 72 h, mean ± SEM, read-out: IC50 (metabolic activity). How it is done: (§1) Cells harvested from sub-confluent monolayers were seeded at 15,000 cells per mL in a 96-well microtiter plate (Cambridge Technology, Labège, France) and cultured for 24 h under standard conditions. Standard medium was then replaced by fresh medium containing no drugs or compounds at different concentrations. The surviving cells were quantified after 72 h by the MTT assay, according to the manufacturer’s instructions. Briefly, 20 µL of 3-(4,5-diMethylThiazol-2-yl)-2,5diphenyl Tetrazolium bromide (MTT) solution at 5 mg.mL^−1 was added to cells for 3 h at 37 °C. The supernatant was discarded and replaced by 100 µL of dimethyl sulfoxide to dissolve formazan crystals. The absorbance was then read at 600 nm by spectrophotometry. For all concentrations of a given compound, cell viability was expressed as the percentage of the ratio between the mean absorbance of treated cells and the mean absorbance of untreated cells. Three independent experiments were performed, and the data were expressed as percentage of survival (using the untreated cells as 100%) and subjected to statistical analysis (n = 3). The IC50 was calculated using the Chou and Talalay method.

The subject of assay [1] is Caco-2 colon adenocarcinoma cells. Kind of assay: MTT cell viability assay, Caco-2. The assay is classed as cell-based. To be noted: Homo sapiens, Caco-2 (not expressing Tau), 72 h, mean ± SEM, read-out: IC50 (metabolic activity). How it is done:
as §1
A general note: Formazan colour is commonly taken as a measure of viable cells.

For the next assay, the system named is U138 glioblastoma cells. Kind of assay: MTT cell viability assay, U138. The format is cell-based. As to conditions: Homo sapiens, U138, 72 h, mean ± SEM, read-out: IC50 (metabolic activity). How it is done:
as §1

Assay [2] concerns SK-N-SH neuroblastoma cells. Kind of assay: MTT cell viability assay, SK-N-SH. To be noted: Homo sapiens, 72 h, mean ± SEM, read-out: IC50 (metabolic activity). The format is cell-based. How it is done: as §1
For assay [3], the target named is T1, full-length human Tau (hTau40) (Homo sapiens, UniProt P10636).
T1 construct: The full-length human Tau (hTau40) was expressed in a transformed E. coli BL21 (DE3) strain; made in house; host or cells: E. coli BL21 (DE3)
Kind of assay: Tau oligomerization inhibition assay (heparin-induced, thioflavin S fluorescence). The format is biochemical. As to conditions: 2 µM Tau, heparin-induced, ThS; buffer A pH 6.9; 25 °C per table footnote (37 °C in method); mean ± SD; read-out: Inhibition of Aggregation IC50. How it is done:
Tau oligomerization inhibition assay was performed at 37 °C in 96-well plates by monitoring thioflavin-S fluorescence at 520 nm after excitation at 440 nm using a microplate reader (POLARstar Omega system, BMG Labtech, Paris, France). The Tau oligomerization process was induced by heparin. […] The plates were shaken at 200 rpm for 10 s before each measurement. The real value of fluorescence at the plateau was determined using SciDAVis v1.23 software. Data were fitted to the SciDAVis built-in ExpGrowth equation by means of nonlinear least-squares regression analysis. Y = Y0 + A × exp(x/t)(1)
The unscaled Levenberg–Marquardt algorithm was used, and initial values were given to Y0, A, and t. The final Y0 value of the model corresponds to the plateau value. The plateau values were then used to calculate the Tau oligomerization inhibition percentage. The IC50 for each compound was calculated from the scatter plot of Tau oligomerization inhibition (in percentage) as a function of log10 of compound concentration. The IC50 value (in µM) thus corresponds to ten raised to the power of […].

Another assay concerns U87 shTau cells. Kind of assay: MTT cell viability assay, U87 shTau (Tau-depleted). The format is cell-based. To be noted: Homo sapiens, 72 h, mean ± SEM, read-out: IC50 (metabolic activity). How it is done:
(§2) All cell lines were purchased from ATCC, Gaithersburg, MD, USA. Cells from human glioblastoma (clones U87 wt, HTB-14; U118, HTB-15; U251, HTB-12; U138, HTB-16), neuroblastoma (clone SK-N-SH, HTB-11), and colorectal adenocarcinoma (clone Caco-2, HTB-37) were routinely grown at 37 °C in a humidified atmosphere containing 5% CO2. Cells were maintained by regular passages in complete media supplemented with 10% FBS, 2mM of L-glutamine, 100 U/mL of penicillin, and 50 U/mL of streptomycin (Invitrogen, Paris, France). For U87 wt, U251, U138, and SK-N-SH cells, the medium consisted of EMEM (Lonza, Levallois Perret, France). U118 and Caco-2 lines were maintained in DMEM. The U87 wt-derived lines, U87 shCTRL, and U87 shTau2 cells were continuously maintained in complete EMEM medium supplemented with 0.4 µg/mL of puromycin. The shRNA sequences and the protocol of clone selection and Tau downregulation were previously described in [20]. For Tau expression rescue, the U87 shCTRL and U87 shTau cells were seeded two days prior to experiments at 4.10^5 cells per 60 mm dish in 6 mL of complete medium. Cells were transfected using LipofectAmine 2000 according to Invitrogen instructions and 8 µg EGFP-free plasmid constructs (for U87 shCTRL) and EGFP-hTau40 plasmid constructs (for U87 shTau) were used in total. One day prior to experiments, all cells were plated in a 96-well microtiter plate to prepare for viability assays. Cells were free from mycoplasma as determined by mycoalert tests (Lonza).
as §1

The test system of a further assay is T98G glioblastoma cells. Kind of assay: MTT cell viability assay, T98G. The format is cell-based. To be noted: Homo sapiens, 72 h, mean ± SEM, read-out: IC50 (metabolic activity). How it is done:
as §1

Another assay concerns U87 glioblastoma cells. Kind of assay: MTT cell viability assay, U87. The format is cell-based, human. To be noted: Homo sapiens; U87, 72 h, MTT; mean ± SEM; read-out: IC50 (metabolic activity). How it is done: as §1
The next assay has as its system U87 shCTRL cells. Kind of assay: MTT cell viability assay, U87 shCTRL (expressing Tau). The format is cell-based, human. As to conditions: Homo sapiens; U87 shCTRL, 72 h, MTT; mean ± SEM; read-out: IC50 (metabolic activity). How it is done: as §2, §1
Assay [4] addresses T2, Tau protein (full-length human Tau, hTau40) (Homo sapiens, UniProt P10636).
T2 construct: The full-length human Tau (hTau40) was expressed in a transformed E. coli BL21 (DE3) strain; made in house; host or cells: E. coli BL21 (DE3)
Kind of assay: Tau intrinsic fluorescence quenching, modified Stern–Volmer binding parameters. As to conditions: 5 µM Tau, buffer B pH 6.8, mean ± SD; for Kd: read-out: Equilibrium Binding Constants to Tau, KD. How it is done: Fluorescence measurements were performed with a Horiba Jobin Yvon FluoroMax-3 spectrofluorometer. […] For experiments, the excitation wavelength was fixed at 275 nm, and the emission spectra were recorded between 280 nm and 500 nm at room temperature. The inner filter effects were corrected according to Lakowicz as follows:F = Fobs × exp{(Aem + Aex)/2}(2) where Fobs and F are the observed and corrected fluorescence values at the emission wavelength of 303 nm. Aex and Aem are the absorptions at the excitation and emission wavelengths, respectively, calculated with A = ε.l.C, in which ε is the extinction coefficient of Tau, l is the path length of cuvette, and C is Tau concentration.
The total fluorescence in the absence of quencher (F0) is given by:F0 = F0a + F0b(4) where 0 refers to the fluorescence intensity in the absence of quencher.
In the presence of quencher, we defined fa as the fraction of the initial fluorescence of Tau accessible to compounds:fa = F0a/(F0a + F0b)(5)
Therefore, the intensity of the accessible fraction (fa) is decreased according to the Stern–Volmer equation, whereas the buried fraction is not quenched, as given by:F = {F0a/(1 + K.[Q])} + F0b(6)
Then, subtraction of Equations (6) and (4) yields:ΔF = F0 − F = F0a × {K.[Q]/(1 + K.[Q])}(7)
At last, inversion of Equation (7) followed by division into Equation (4) yields:F0/ΔF = {1/(fa.K.[Q])} + 1/fa(8)
We applied this modified form of the Stern–Volmer equation to graphically determine the values of fa and K. For our experiments, we plotted F0/ΔF against 1/[Q], then we determined the fa value at the point of intersection with the y-axis, while the slope represented (faK)^−1.

T1 sequence (P10636 1-441 isoform P10636-8): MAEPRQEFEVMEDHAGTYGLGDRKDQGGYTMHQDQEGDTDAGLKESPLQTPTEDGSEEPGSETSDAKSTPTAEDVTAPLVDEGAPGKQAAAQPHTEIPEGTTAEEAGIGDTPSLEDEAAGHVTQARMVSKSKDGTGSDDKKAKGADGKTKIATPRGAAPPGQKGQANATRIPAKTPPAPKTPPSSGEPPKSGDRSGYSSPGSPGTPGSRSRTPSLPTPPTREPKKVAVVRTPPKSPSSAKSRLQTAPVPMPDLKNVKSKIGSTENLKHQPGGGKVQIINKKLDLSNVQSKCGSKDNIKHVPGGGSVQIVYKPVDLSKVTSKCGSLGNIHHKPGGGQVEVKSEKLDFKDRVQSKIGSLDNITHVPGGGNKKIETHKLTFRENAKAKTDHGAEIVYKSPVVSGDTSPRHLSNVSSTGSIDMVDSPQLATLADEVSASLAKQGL
T2 sequence (P10636 1-441 isoform P10636-8): as above

Regarding `Nc1nc2ccc3oc(-c4ccccc4)cc(=O)c3c2s1` [Compound 3], the IC50 (with U251 glioblastoma cells; in assay [1]; in the assay with U138 glioblastoma cells; in assay [2]; in assay [3]; in the assay with U87 shTau cells) was greater than 100 µM throughout. Moreover, the IC50 with T98G glioblastoma cells, in the assay on U87 glioblastoma cells and with U87 shCTRL cells was greater than 100 µM in each case.

For `Nc1nc2ccc3oc(-c4ccccc4F)cc(=O)c3c2s1` [Compound 6], the IC50 – broadly, the midpoint of a concentration-inhibition curve – in the assay on U251 glioblastoma cells turned out to be 1.3 ± 0.4 µM; in the assay with U138 glioblastoma cells, 1 ± 0.4 µM; in assay [3] it was 9 ± 0.5 µM; in the assay on T98G glioblastoma cells, 2.9 ± 0.7 µM; in the assay with U87 glioblastoma cells, 2.6 ± 1.3 µM.

`Nc1nc2ccc3oc(-c4cccc(F)c4)cc(=O)c3c2s1` [Compound 7]: the “Equilibrium Binding Constants to Tau, fA (Tyr accessible fraction)” value in [4] was found to be 0.21 ± 0.02. Besides, the Kd (as a rule, the equilibrium constant for the complex coming apart) in assay [4] came to 5.9 ± 1.6 µM. Besides, the IC50 was greater than 100 µM in the assay with U251 glioblastoma cells; greater than 100 µM in the assay with U138 glioblastoma cells; 17 ± 2.9 µM in [3]; greater than 100 µM with T98G glioblastoma cells; greater than 100 µM in the assay on U87 glioblastoma cells.

With `Nc1nc2ccc3oc(-c4ccc(F)cc4)cc(=O)c3c2s1` [Compound 8], the IC50 in the assay with U251 glioblastoma cells is 3.6 ± 1.1 µM; in the assay with U138 glioblastoma cells, 10.2 ± 5 µM; in [3], 15 ± 1.2 µM; in the assay with T98G glioblastoma cells it was greater than 100 µM; in the assay with U87 glioblastoma cells, greater than 100 µM.

As to `Nc1nc2ccc3oc(-c4cccc(F)c4)c(O)c(=O)c3c2s1` [Compound 10], in [4], the Kd stood at 6.3 ± 1.2 µM. The IC50 in the assay with U251 glioblastoma cells stood at 1 ± 0.4 µM; in the assay on U138 glioblastoma cells, 0.9 ± 0.4 µM; in assay [3], 9.9 ± 1.1 µM; with U87 shTau cells, 1.4 ± 0.6 µM; with T98G glioblastoma cells, 1.5 ± 0.7 µM; with U87 glioblastoma cells, 2.6 ± 1.5 µM. The IC50 in the assay with U87 shCTRL cells is 1.2 ± 0.4 µM.

For the compound `Nc1nc2ccc3oc(-c4ccc(F)cc4)c(O)c(=O)c3c2s1` [Compound 11], the “Equilibrium Binding Constants to Tau, fA (Tyr accessible fraction)” value in assay [4] stood at 0.16 ± 0.01. The Kd in assay [4] amounted to 5.2 ± 1.8 µM. In addition, the half-inhibitory concentration (IC50) is 1.9 ± 0.2 µM with U251 glioblastoma cells; 5 ± 1.1 µM with U138 glioblastoma cells; greater than 100 µM in assay [3]; 0.4 ± 0.4 µM in the assay with U87 shTau cells; 3.5 ± 1 µM in the assay with T98G glioblastoma cells; 5.1 ± 1.8 µM with U87 glioblastoma cells. In the assay with U87 shCTRL cells, the IC50 came to 0.3 ± 0.2 µM.

As to `Nc1nc2ccc3oc(-c4ccccc4)c(O)c(=O)c3c2s1` [Compound 12], the “Equilibrium Binding Constants to Tau, fA (Tyr accessible fraction)” value in [4] is given as 0.19 ± 0.05. Further, the Kd in [4] was 4.7 ± 1.3 µM. Moreover, the half-inhibitory concentration (IC50) in assay [3] amounted to 12.4 ± 1.2 µM; with U87 shTau cells, 0.5 ± 0.3 µM; in the assay on T98G glioblastoma cells, 1.7 ± 0.9 µM; with U87 glioblastoma cells, 4.1 ± 3.4 µM; in the assay with U87 shCTRL cells, 0.6 ± 0.1 µM.

As to `COc1c(-c2ccccc2F)oc2ccc3nc(N)sc3c2c1=O` [Compound 13], the “Equilibrium Binding Constants to Tau, fA (Tyr accessible fraction)” value in assay [4] is listed as 0.21 ± 0.02. In assay [4], the Kd worked out at 5.4 ± 2.5 µM. Besides, the IC50 in the assay with U251 glioblastoma cells is 1.7 ± 0.1 µM; in the assay with U138 glioblastoma cells, 1.5 ± 0.3 µM; in assay [3] it was 9 ± 0.6 µM; in the assay with T98G glioblastoma cells, 9.2 ± 1.2 µM; in the assay on U87 glioblastoma cells it was 7.9 ± 3.4 µM.

Consider `COc1c(-c2ccc(F)cc2)oc2ccc3nc(N)sc3c2c1=O` [Compound 15], for which the “Equilibrium Binding Constants to Tau, fA (Tyr accessible fraction)” value in assay [4] was found to be 0.23 ± 0.03. Further, the Kd in assay [4] worked out at 4.1 ± 1 µM. Moreover, the half-maximal inhibitory concentration (IC50) in the assay with U251 glioblastoma cells was found to be 1.9 ± 0.2 µM; in the assay with U138 glioblastoma cells, 4.1 ± 1.6 µM; in assay [3] it was 6.5 ± 0.1 µM; with T98G glioblastoma cells it was 11.3 ± 4.1 µM; in the assay with U87 glioblastoma cells, 8.8 ± 3.3 µM.

Turning to `Nc1nc2ccc3nc(-c4cccc(Oc5ccccc5)c4)[nH]c(=O)c3c2s1` [Compound 16], the “Equilibrium Binding Constants to Tau, fA (Tyr accessible fraction)” value in assay [4] is listed as 0.20 ± 0.03. Also, in [4], the dissociation constant (Kd) is 5 ± 2.5 µM. Besides, the IC50 was greater than 100 µM with U251 glioblastoma cells; greater than 100 µM in the assay with U138 glioblastoma cells; 10.8 ± 2.2 µM in [3]; greater than 100 µM in the assay with U87 shTau cells; greater than 100 µM in the assay on T98G glioblastoma cells; greater than 100 µM in the assay with U87 glioblastoma cells. Moreover, the IC50 in the assay on U87 shCTRL cells was greater than 100 µM.
